Results reported in PubChem BioAssay (NCI).
Several values for one entry are separate records, joined by “and”; a condition that tells them apart may be missing. Equal entries are not always repeated.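 96-well plates; 48 h exposure; 5 concentrations. Endpoints by linear interpolation between flanking doses. Not reached: highest tested concentration assigned. Here, GI50 denotes the concentration required for 50% inhibition of growth. TGI: concentration producing complete growth inhibition.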

What was measured:
Assay in all cases: NCI-60 cell line screen, 48 h
[1] = tested on: TK-10 renal
[2] = tested on: HCT-116 colon
[3] = tested on: SNB-75 CNS
[4] = tested on: HS 578T breast
[5] = tested on: UACC-257 melanoma
[6] = tested on: MCF7 breast
[7] = tested on: PC-3 prostate
[8] = tested on: SK-MEL-5 melanoma
[9] = tested on: HOP-62 NSCLC
[10] = tested on: U251 CNS
[11] = tested on: 786-0 renal
[12] = tested on: UACC-62 melanoma
[13] = tested on: A498 renal
[14] = tested on: DU-145 prostate
[15] = tested on: SN12C renal
[16] = tested on: NCI-H23 lung
[17] = tested on: NCI-H226 lung
[18] = tested on: HCC-2998 colon
[19] = tested on: HL-60(TB) leukemia
[20] = tested on: BT-549 breast
[21] = tested on: MDA-N
[22] = tested on: COLO 205 colon
[23] = tested on: SNB-19 CNS
[24] = tested on: LOX IMVI melanoma
[25] = tested on: HT29 colon
[26] = tested on: RPMI-8226 leukemia
[27] = tested on: SK-MEL-28 melanoma
[28] = tested on: SF-539 CNS
[29] = tested on: NCI-H522 lung
[30] = tested on: CCRF-CEM leukemia
[31] = tested on: NCI/ADR-RES ovarian
[32] = tested on: IGROV1 ovarian
[33] = tested on: SR leukemia
[34] = tested on: HCT-15 colon
[35] = tested on: KM12 colon
[36] = tested on: NCI-H460 lung
[37] = tested on: HOP-92 NSCLC
[38] = tested on: MALME-3M melanoma
[39] = tested on: M14 melanoma
[40] = tested on: MOLT-4 leukemia
[41] = tested on: SK-MEL-2 melanoma
[42] = tested on: A549 NSCLC
[43] = tested on: UO-31 renal
[44] = tested on: K-562 leukemia
[45] = tested on: MDA-MB-231 breast
[46] = tested on: SW-620 colon
[47] = tested on: MDA-MB-435
[48] = tested on: RXF 393 renal
[49] = tested on: OVCAR-5 ovarian
[50] = tested on: OVCAR-4 ovarian
[51] = tested on: SF-295 CNS
[52] = tested on: EKVX NSCLC
[53] = tested on: SK-OV-3 ovarian
[54] = tested on: CAKI-1 renal
[55] = tested on: SF-268 CNS
[56] = tested on: T-47D breast
[57] = tested on: ACHN renal
[58] = tested on: OVCAR-3 ovarian
[59] = tested on: OVCAR-8 ovarian

Question: Which GI50 [1] does the source give for `O=C1c2ccccc2-c2n[nH]c3cccc1c23` here?
Answer: 7.44 µM

Question: What about the TGI [1] of the same compound?
Answer: 52 µM and 76.2 µM

Question: And the GI50 [2]?
Answer: 6.15 µM

Question: And the TGI [2]?
Answer: > 100 µM

Question: And the TGI [3]?
Answer: 97.6 µM and > 100 µM

Question: And the GI50 [4]?
Answer: 21 µM

Question: What about the TGI [4] of the same compound?
Answer: > 100 µM

Question: And the TGI [5]?
Answer: > 100 µM

Question: What about the GI50 [6] of the same compound?
Answer: 21.1 µM

Question: And the TGI [6]?
Answer: > 100 µM

Question: What about the GI50 [7] of the same compound?
Answer: 17.8 µM

Question: And the TGI [7]?
Answer: > 100 µM

Question: What about the GI50 [8] of the same compound?
Answer: 25.6 µM

Question: What about the TGI [8] of the same compound?
Answer: 37.5 µM and > 94.6 µM

Question: What about the GI50 [9] of the same compound?
Answer: 32.1 µM

Question: And the TGI [9]?
Answer: > 100 µM

Question: What about the GI50 [10] of the same compound?
Answer: 16.6 µM

Question: And the TGI [10]?
Answer: > 100 µM

Question: And the GI50 [11]?
Answer: 11.9 µM

Question: And the TGI [11]?
Answer: > 100 µM

Question: What about the GI50 [12] of the same compound?
Answer: 19.7 µM

Question: And the TGI [12]?
Answer: 86.6 µM and > 100 µM

Question: What about the GI50 [13] of the same compound?
Answer: 4.95 µM

Question: And the TGI [13]?
Answer: 35.4 µM and 52.4 µM

Question: And the GI50 [14]?
Answer: 13 µM

Question: And the TGI [14]?
Answer: > 100 µM

Question: What about the GI50 [15] of the same compound?
Answer: 20.8 µM

Question: And the TGI [15]?
Answer: > 100 µM

Question: What about the TGI [16] of the same compound?
Answer: 58.1 µM and > 100 µM

Question: And the GI50 [17]?
Answer: 10.3 µM

Question: What about the TGI [17] of the same compound?
Answer: > 100 µM and 78.4 µM

Question: And the GI50 [18]?
Answer: 19.3 µM

Question: And the TGI [18]?
Answer: 54.6 µM and > 100 µM

Question: And the GI50 [19]?
Answer: 9.8 µM

Question: And the TGI [19]?
Answer: > 100 µM

Question: And the GI50 [20]?
Answer: 19.3 µM

Question: And the TGI [20]?
Answer: > 100 µM

Question: What about the TGI [21] of the same compound?
Answer: > 100 µM

Question: What about the GI50 [22] of the same compound?
Answer: 23.9 µM

Question: And the TGI [22]?
Answer: > 100 µM

Question: And the TGI [23]?
Answer: > 100 µM

Question: What about the GI50 [24] of the same compound?
Answer: 6.04 µM

Question: What about the TGI [24] of the same compound?
Answer: > 100 µM and 34.2 µM

Question: What about the GI50 [25] of the same compound?
Answer: 12.9 µM

Question: What about the TGI [25] of the same compound?
Answer: > 100 µM

Question: And the GI50 [26]?
Answer: 14.1 µM

Question: What about the TGI [26] of the same compound?
Answer: > 100 µM

Question: What about the GI50 [27] of the same compound?
Answer: 49.3 µM

Question: And the TGI [27]?
Answer: > 100 µM

Question: What about the GI50 [28] of the same compound?
Answer: 25.1 µM

Question: What about the TGI [28] of the same compound?
Answer: > 100 µM

Question: And the GI50 [29]?
Answer: 15.7 µM

Question: What about the TGI [29] of the same compound?
Answer: 50.4 µM and > 92.8 µM

Question: And the TGI [30]?
Answer: > 100 µM

Question: What about the GI50 [31] of the same compound?
Answer: 30.5 µM

Question: And the TGI [31]?
Answer: 59.2 µM and > 100 µM

Question: What about the GI50 [32] of the same compound?
Answer: 9.32 µM

Question: And the TGI [32]?
Answer: > 100 µM and 99.1 µM

Question: What about the GI50 [33] of the same compound?
Answer: 9.01 µM

Question: And the TGI [33]?
Answer: > 100 µM

Question: And the GI50 [34]?
Answer: 6.66 µM

Question: What about the TGI [34] of the same compound?
Answer: > 100 µM

Question: What about the GI50 [35] of the same compound?
Answer: 3.1 µM

Question: And the TGI [35]?
Answer: 72 µM and > 100 µM

Question: What about the GI50 [36] of the same compound?
Answer: 8.6 µM

Question: What about the TGI [36] of the same compound?
Answer: > 100 µM

Question: What about the GI50 [37] of the same compound?
Answer: 23.7 µM

Question: What about the TGI [37] of the same compound?
Answer: > 100 µM

Question: And the GI50 [38]?
Answer: 24.1 µM

Question: What about the TGI [38] of the same compound?
Answer: 58.9 µM and > 86.8 µM

Question: And the GI50 [39]?
Answer: 5.03 µM

Question: What about the TGI [39] of the same compound?
Answer: > 100 µM

Question: What about the GI50 [40] of the same compound?
Answer: 7.85 µM

Question: What about the TGI [40] of the same compound?
Answer: > 100 µM

Question: What about the GI50 [41] of the same compound?
Answer: 22.5 µM

Question: What about the TGI [41] of the same compound?
Answer: > 100 µM

Question: And the TGI [42]?
Answer: > 100 µM

Question: What about the GI50 [43] of the same compound?
Answer: 4.02 µM

Question: And the TGI [43]?
Answer: > 100 µM and 55.9 µM

Question: And the GI50 [44]?
Answer: 15.6 µM

Question: What about the TGI [44] of the same compound?
Answer: > 100 µM

Question: And the GI50 [45]?
Answer: 35.8 µM

Question: What about the TGI [45] of the same compound?
Answer: > 100 µM

Question: What about the TGI [46] of the same compound?
Answer: > 100 µM

Question: What about the GI50 [47] of the same compound?
Answer: 15.8 µM

Question: What about the TGI [47] of the same compound?
Answer: > 100 µM

Question: And the GI50 [48]?
Answer: 5.89 µM

Question: And the TGI [48]?
Answer: > 100 µM and 56.9 µM

Question: What about the TGI [49] of the same compound?
Answer: 85.4 µM and > 100 µM

Question: And the GI50 [50]?
Answer: 20.2 µM

Question: And the TGI [50]?
Answer: > 100 µM

Question: And the TGI [51]?
Answer: 86.3 µM and > 100 µM

Question: What about the GI50 [52] of the same compound?
Answer: 7.03 µM

Question: And the TGI [52]?
Answer: > 100 µM and 85.1 µM

Question: And the GI50 [53]?
Answer: 7.39 µM

Question: And the TGI [53]?
Answer: > 100 µM

Question: And the GI50 [54]?
Answer: 2.98 µM

Question: And the TGI [54]?
Answer: 18.2 µM and 22.6 µM

Question: And the GI50 [55]?
Answer: 12 µM

Question: What about the TGI [55] of the same compound?
Answer: > 100 µM

Question: What about the GI50 [56] of the same compound?
Answer: 45.1 µM

Question: And the TGI [56]?
Answer: > 100 µM

Question: What about the TGI [57] of the same compound?
Answer: > 100 µM

Question: And the GI50 [58]?
Answer: 23.8 µM

Question: What about the TGI [58] of the same compound?
Answer: 92.1 µM and > 100 µM

Question: What about the TGI [59] of the same compound?
Answer: > 100 µM
